Results: patent publication US8846951B2 (AbbVie Inc., priority 2009, dated 2014)
Read-outs that look alike come from different tables or passages of the source.

What was measured:
[1] = target: T1, 5HT2B receptors (Homo sapiens, UniProt P41595); assay: Human 5-HT2B functional high throughput screening assay in CHO-K1 cells (calcium flux); type: cell-based; conditions: for EC50: CHO-K1 cells, calcium flux
T1 construct: expressed in transfected cells; host or cells: CHO-K1 cells
In short: (§1)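 Agonism was measured as FLIPR fluorescence increase (480/530 nm, 25° C) with Ca4 dye and 2.5 mM probenecid, in serum-starved CHO-K1 lines overexpressing human 5-HT2C or 5-HT2B. Six-point 1:10 dilutions from 10 μM (0.2% DMSO final) were fitted by 4-parameter logistics. Responses were normalised to serotonin to give EC50 and % Emax.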

[2] = target: T2, 5HT2C receptors (Homo sapiens, UniProt P28335); assay: Human 5-HT2C functional high throughput screening assay in CHO-K1 cells (calcium flux); type: cell-based; parameters: expressed in transfected cells; host or cells: CHO-K1 cells; conditions: for EC50: CHO-K1 cells, calcium flux; for Emax: CHO-K1, 5-HT2C, maximum functional response as percentage relative to the effect of serotonin
T2 sequence (P28335 33-458): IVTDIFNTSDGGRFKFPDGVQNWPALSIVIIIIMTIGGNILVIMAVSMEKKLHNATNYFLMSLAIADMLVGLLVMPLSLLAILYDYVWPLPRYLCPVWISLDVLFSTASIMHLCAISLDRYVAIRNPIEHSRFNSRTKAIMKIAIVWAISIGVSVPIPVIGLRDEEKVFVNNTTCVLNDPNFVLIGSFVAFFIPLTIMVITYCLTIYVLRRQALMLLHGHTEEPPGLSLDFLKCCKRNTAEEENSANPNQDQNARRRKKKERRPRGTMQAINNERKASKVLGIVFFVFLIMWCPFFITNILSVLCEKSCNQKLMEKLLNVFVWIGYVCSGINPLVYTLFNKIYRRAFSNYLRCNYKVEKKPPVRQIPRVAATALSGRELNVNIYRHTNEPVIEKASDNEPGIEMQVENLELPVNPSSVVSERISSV
In short: as §1

[3] = 5-HT2B agonist activity, read-out: EC50
[4] = 5-HT2B, maximum functional response as percentage relative to the effect of serotonin
[5] = 5-HT2C agonist activity, read-out: EC50

T1 sequence (P41595 whole entry): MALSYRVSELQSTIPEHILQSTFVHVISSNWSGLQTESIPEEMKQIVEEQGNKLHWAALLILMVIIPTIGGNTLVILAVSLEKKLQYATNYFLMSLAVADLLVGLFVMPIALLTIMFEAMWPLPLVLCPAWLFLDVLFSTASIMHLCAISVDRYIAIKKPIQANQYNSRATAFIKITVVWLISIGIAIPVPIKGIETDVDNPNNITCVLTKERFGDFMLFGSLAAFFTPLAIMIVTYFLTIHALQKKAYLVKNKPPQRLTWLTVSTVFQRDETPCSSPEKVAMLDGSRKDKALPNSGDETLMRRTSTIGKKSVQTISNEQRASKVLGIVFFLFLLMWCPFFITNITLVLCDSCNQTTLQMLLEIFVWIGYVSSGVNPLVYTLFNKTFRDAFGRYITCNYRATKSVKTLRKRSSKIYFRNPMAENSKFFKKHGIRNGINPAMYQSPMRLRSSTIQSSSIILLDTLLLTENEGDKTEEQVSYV

EC50 [1, 3] [nM] | Emax [1, 4] | EC50 [2, 5] [nM] | Emax ([2]; read-out: Emax) [%] | Structure (SMILES) | Emax ([1]; CHO-K1) [%] | Emax [2] [%] | EC50 ([1]; EC50, 5-HT2B agonist activity) [nM] | EC50 ([2]; EC50, 5-HT2C agonist activity) [nM]
> 10000 | inactive | 7 | > 120 | CN1C[C@@H]2CNC(=O)c3cc(-c4cccc(S(C)(=O)=O)c4)ccc3[C@H]2C1 [Example 228, (3aS,10bS)-2-Methyl-8-(3-(methylsulfonyl)phenyl)-1,2,3,3a,4,5-hexahydrobenzo[c]pyrrolo[3,4-e]azepin-6(10bH)-one] |  |  |  | 
> 10000 | inactive |  | 90 | CN1C[C@H]2CNC(=O)c3cc(-c4cccc(S(C)(=O)=O)c4)ccc3[C@@H]2C1 [Example 229, (3aR,10bR)-2-Methyl-8-(3-(methylsulfonyl)phenyl)-1,2,3,3a,4,5-hexahydrobenzo[c]pyrrolo[3,4-e]azepin-6(10bH)-one] |  |  |  | 
 |  |  |  | Clc1ccc2c(c1)[C@H]1CNC[C@@H]1CCO2 [Example 233, (3aR,10bS)-9-Chloro-2,3,3a,4,5,10b-hexahydro-1H-[1]benzoxepino[4,5-c]pyrrole] | 55 | > 120 |  | 
 |  |  |  | CN1C[C@@H]2CCOc3ccc(Cl)cc3[C@H]2C1 [Example 234, (3aR,10bS)-9-Chloro-2-methyl-2,3,3a,4,5,10b-hexahydro-1H-[1]benzoxepino[4,5-c]pyrrole] | 70 | > 120 | 10 | 10
 |  |  |  | CN1C[C@@H]2CCOc3ccccc3[C@H]2C1 [Example 235, (3aR,10bS)-2-Methyl-2,3,3a,4,5,10b-hexahydro-1H-[1]benzoxepino[4,5-c]pyrrole] | 45 | 120 | 100 | 40
> 10000 | inactive | 2 | 100 | C[C@H](O)c1cccc(-c2ccc3c(c2)C(=O)NC[C@H]2CN(C)C[C@H]32)c1 [Example 248, (3aS,10bS)-8-(3-((S)-1-Hydroxyethyl)phenyl)-2-methyl-1,2,3,3a,4,5-hexahydrobenzo[e]pyrrolo[3,4-c]azepin-6(10bH)-one] |  |  |  | 
> 10000 | inactive | 2 | 100 | C[C@@H](O)c1cccc(-c2ccc3c(c2)C(=O)NC[C@H]2CN(C)C[C@H]32)c1 [Example 249, (3aS,10bS)-8-(3-((R)-1-Hydroxyethyl)phenyl)-2-methyl-1,2,3,3a,4,5-hexahydrobenzo[e]pyrrolo[3,4-c]azepin-6(10bH)-one] |  |  |  | 
 |  |  |  | COc1ccc2c(c1)[C@H]1CNC[C@@H]1CCC2=O [Example 259, (3aR,10bS)-9-Methoxy-2,3,3a,4,5,10b-hexahydrobenzo[3,4]cyclohepta[1,2-c]pyrrol-6(1H)-one] | 85 | > 120 | 1000 | 60
 |  |  |  | c1ccc2c(c1)OCC[C@H]1CNC[C@H]21 [Example 270, (3aR,10bS)-2,3,3a,4,5,10b-Hexahydro-1H-[1]benzoxepino[4,5-c]pyrrole] | 50 | > 120 | 200 | 10
 |  |  |  | c1ccc2c(c1)OCC[C@@H]1CNC[C@@H]21 [Example 271, (3aS,10bR)-2,3,3a,4,5,10b-Hexahydro-1H-[1]benzoxepino[4,5-c]pyrrole] | 30 | 120 | 5000 | 400
> 10000 | inactive | 20 | > 120 | COc1ccccc1-c1ccc2c(c1)C(=O)NC[C@H]1CN(C)C[C@H]21 [Example 275, (3aS,10bS)-8-(2-Methoxyphenyl)-2-methyl-1,2,3,3a,4,5-hexahydrobenzo[e]pyrrolo[3,4-c]azepin-6(10bH)-one] |  |  |  | 

Structure (SMILES) | EC50 [1, 3] [nM] | Emax [1, 4] | EC50 [2, 5] [nM] | Emax ([2]; read-out: Emax) [%] | Emax ([1]; CHO-K1) [%] | Emax [2] [%] | EC50 ([1]; EC50, 5-HT2B agonist activity) [nM] | EC50 ([2]; EC50, 5-HT2C agonist activity) [nM]
CN1C[C@@H]2CNC(=O)c3cc(OCc4ccccc4)ccc3[C@H]2C1 [Example 274, (3aS,10bS)-8-(Benzyloxy)-2-methyl-1,2,3,3a,4,5-hexahydrobenzo[e]pyrrolo[3,4-c]azepin-6(10bH)-one] |  | inactive |  |  |  | > 120 | > 10000 | 3
